# Reference: patent US20200055839A1 (priority 2017, published 2020)
# Test system: NL-RLuc virus
# Assay: Inhibition of HIV replication (NL-RLuc virus, luciferase readout in MT-2 cells)
# Format: cell-based
# Conditions: Human immunodeficiency virus 1, MT2, 120 h, MT-2 cells infected with NL-RLuc virus, 5 days of incubation, 10% FBS, at least 2 experiments
# Summary of the method: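 MT-2 cells infected with NL4-3-derived virus carrying Renilla luciferase in place of part of nef, grown 5 days with serial compound dilutions in RPMI 1640/10% FBS. Virus growth read as luciferase expression. EC50 from median effect equation, at least 2 experiments.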
row,Structure (SMILES),EC50
1,"Cc1ncc(-c2ccc(O[C@H](C)c3ccccc3)cn2)c(N2CCC(C)(C)CC2)c1[C@H](OC(C)(C)C)C(=O)O [Example 350, (2S)-2-(tert-butoxy)-2-[4′-(4,4-dimethylpiperidin-1-yl)-6′-methyl-5-[(1R)-1-phenylethoxy]-[2,3′-bipyridine]-5′-yl]acetic acid]",3 nM
2,"Cc1ncc(-c2ccc(OCCCC(C)(C)C)cn2)c(N2CCC(C)(C)CC2)c1[C@H](OC(C)(C)C)C(=O)O [Example 351, (2S)-2-(tert-butoxy)-2-{5-[(4,4-dimethylpentyl)oxy]-4′-(4,4-dimethylpiperidin-1-yl)-6′-methyl-[2,3′-bipyridine]-5′-yl}acetic acid]",0.8 nM
3,"Cc1ncc(-c2ccc(OCCc3cc(F)c(F)cc3F)cn2)c(N2CCC(C)(C)CC2)c1[C@H](OC(C)(C)C)C(=O)O [Example 353, (2S)-2-(tert-butoxy)-2-[4′-(4,4-dimethylpiperidin-1-yl)-6′-methyl-5-[2-(2,4,5-trifluorophenyl)ethoxy]-[2,3′-bipyridine]-5′-yl]acetic acid]",0.8 nM
4,"Cc1ncc(-c2ccc(OCCc3cccc(Cl)c3F)cn2)c(N2CCC(C)(C)CC2)c1[C@H](OC(C)(C)C)C(=O)O [Example 354, (2S)-2-(tert-butoxy)-2-{5-[2-(3-chloro-2-fluorophenyl)ethoxy]-4′-(4,4-dimethylpiperidin-1-yl)-6′-methyl-[2,3′-bipyridine]-5′-yl}acetic acid]",0.5 nM
5,"Cc1ncc(-c2ccc(OCc3c(Cl)cccc3Cl)cn2)c(N2CCC(C)(C)CC2)c1[C@H](OC(C)(C)C)C(=O)O [Example 355, (2S)-2-(tert-butoxy)-2-{5-[(2,6-dichlorophenyl)methoxy]-4′-(4,4-dimethylpiperidin-1-yl)-6′-methyl-[2,3′-bipyridine]-5′-yl}acetic acid]",1 nM
6,"COc1ccccc1COc1ccc(-c2cnc(C)c([C@H](OC(C)(C)C)C(=O)O)c2N2CCC(C)(C)CC2)nc1 [Example 357, (2S)-2-(tert-butoxy)-2-[4′-(4,4-dimethylpiperidin-1-yl)-5-[(2-methoxyphenyl)methoxy]-6′-methyl-[2,3′-bipyridine]-5′-yl]acetic acid]",0.8 nM
7,"COc1ccc(COc2ccc(-c3cnc(C)c([C@H](OC(C)(C)C)C(=O)O)c3N3CCC(C)(C)CC3)nc2)c(OC)c1 [Example 358, (2S)-2-(tert-butoxy)-2-{5-[(2,4-dimethoxyphenyl)methoxy]-4′-(4,4-dimethylpiperidin-1-yl)-6′-methyl-[2,3′-bipyridine]-5′-yl}acetic acid]",1.2 nM
8,"CCC(CC)COc1ccc(-c2cnc(C)c([C@H](OC(C)(C)C)C(=O)O)c2N2CCC(C)(C)CC2)nc1 [Example 359, (2S)-2-(tert-butoxy)-2-[4′-(4,4-dimethylpiperidin-1-yl)-5-(2-ethylbutoxy)-6′-methyl-[2,3′-bipyridine]-5′-yl]acetic acid]",2 nM
9,"CCC(C)COc1ccc(-c2cnc(C)c([C@H](OC(C)(C)C)C(=O)O)c2N2CCC(C)(C)CC2)nc1 (stereo partly drawn) [Example 360, (2S)-2-(tert-butoxy)-2-[4′-(4,4-dimethylpiperidin-1-yl)-6′-methyl-5-(2-methylbutoxy)-[2,3′-bipyridine]-5′-yl]acetic acid]",0.8 nM
10,"Cc1ncc(-c2ccc(OCCC(C)C)cc2)c(N2CCC(C)(C)CC2)c1[C@H](OC(C)(C)C)C(=O)O [Example 361, (2S)-2-(tert-butoxy)-2-[4-(4,4-dimethylpiperidin-1-yl)-2-methyl-5-[4-(3-methylbutoxy)phenyl]pyridin-3-yl]acetic acid]",4 nM
11,"Cc1ncc(-c2ccc(O[C@H](C)C(C)C)cc2)c(N2CCC(C)(C)CC2)c1[C@H](OC(C)(C)C)C(=O)O [Example 362, (2S)-2-(tert-butoxy)-2-[4-(4,4-dimethylpiperidin-1-yl)-2-methyl-5-(4-{[(2R)-3-methylbutan-2-yl]oxy}phenyl)pyridin-3-yl]acetic acid]",8 nM
12,"Cc1ncc(-c2ccc(O[C@@H](C)C(C)C)cc2)c(N2CCC(C)(C)CC2)c1[C@H](OC(C)(C)C)C(=O)O [Example 363, (2S)-2-(tert-butoxy)-2-[4-(4,4-dimethylpiperidin-1-yl)-2-methyl-5-(4-{[(2S)-3-methylbutan-2-yl]oxy}phenyl)pyridin-3-yl]acetic acid]",13 nM
13,"Cc1ncc(-c2ccc(OCCc3cccc(Cl)c3)cc2)c(N2CCC(C)(C)CC2)c1[C@H](OC(C)(C)C)C(=O)O [Example 364, (2S)-2-(tert-butoxy)-2-(5-{4-[2-(3-chlorophenyl)ethoxy]phenyl}-4-(4,4-dimethylpiperidin-1-yl)-2-methylpyridin-3-yl)acetic acid]",2 nM
14,"Cc1cccc(CCOc2ccc(-c3cnc(C)c([C@H](OC(C)(C)C)C(=O)O)c3N3CCC(C)(C)CC3)cc2)c1 [Example 365, (2S)-2-(tert-butoxy)-2-[4-(4,4-dimethylpiperidin-1-yl)-2-methyl-5-{4-[2-(3-methylphenyl)ethoxy]phenyl}pyridin-3-yl]acetic acid]",2 nM
15,"Cc1ncc(-c2ccc(OCCc3c(Cl)cccc3Cl)cc2)c(N2CCC(C)(C)CC2)c1[C@H](OC(C)(C)C)C(=O)O [Example 366, (2S)-2-(tert-butoxy)-2-(5-{4-[2-(2,6-dichlorophenyl)ethoxy]phenyl}-4-(4,4-dimethylpiperidin-1-yl)-2-methylpyridin-3-yl)acetic acid]",5 nM
16,"COc1ccc(CCOc2ccc(-c3cnc(C)c([C@H](OC(C)(C)C)C(=O)O)c3N3CCC(C)(C)CC3)cc2)cc1 [Example 367, (2S)-2-(tert-butoxy)-2-[4-(4,4-dimethylpiperidin-1-yl)-5-{4-[2-(4-methoxyphenyl)ethoxy]phenyl}-2-methylpyridin-3-yl]acetic acid]",1 nM
17,"Cc1ncc(-c2cnc(OCCC(C)C)c(F)c2)c(N2CCC(C)(C)CC2)c1[C@H](OC(C)(C)C)C(=O)O [Example 368, (2S)-2-(tert-butoxy)-2-[4-(4,4-dimethylpiperidin-1-yl)-5′-fluoro-6-methyl-6′-(3-methylbutoxy)-[3,3′-bipyridine]-5-yl]acetic acid]",1 nM
18,"Cc1ncc(-c2cnc(O[C@H](C)C(C)C)c(F)c2)c(N2CCC(C)(C)CC2)c1[C@H](OC(C)(C)C)C(=O)O [Example 369, (2S)-2-(tert-butoxy)-2-[4-(4,4-dimethylpiperidin-1-yl)-5′-fluoro-6-methyl-6′-{[(2R)-3-methylbutan-2-yl]oxy}-[3,3′-bipyridine]-5-yl]acetic acid]",2 nM
19,"Cc1ncc(-c2cnc(O[C@@H](C)C(C)C)c(F)c2)c(N2CCC(C)(C)CC2)c1[C@H](OC(C)(C)C)C(=O)O [Example 370, (2S)-2-(tert-butoxy)-2-[4-(4,4-dimethylpiperidin-1-yl)-5′-fluoro-6-methyl-6′-{[(2S)-3-methylbutan-2-yl]oxy}-[3,3′-bipyridine]-5-yl]acetic acid]",1 nM
20,"Cc1ncc(-c2cnc(OCCc3cccc(Cl)c3)c(F)c2)c(N2CCC(C)(C)CC2)c1[C@H](OC(C)(C)C)C(=O)O [Example 371, (2S)-2-(tert-butoxy)-2-{6′-[2-(3-chlorophenyl)ethoxy]-4-(4,4-dimethylpiperidin-1-yl)-5′-fluoro-6-methyl-[3,3′-bipyridine]-5-yl}acetic acid]",1 nM
